# In patent US8076266B2, “Urea phosphite fungicide” (Lidochem, Inc., priority 2004, dated 2011):
# Key:
# [1] = system: Downey Mildew fungus on lettuce; conditions: in vivo
# [2] = type: physicochemical
# From the text: […]. 55 grams phosphorous acid crystals were blended with 42 grams urea pills and stirred in a covered container at room temperature. […].
Compound,"Downey mildew rating, Mean of 4 Replications [1]",Pathological acerbation [1],Ranking [1],Stability of liquid on heating / cooling [2]
NC(N)=O.OP(O)O [Urea Phosphite],3.93,no indication of pathological acerbation,1,–
Urea Phosphite [Example 4],–,–,–,stable upon heating to 90 °C and crystals formed upon cooling
potassium phosphite [1 (potassium phosphite)],4.62,–,3,–
potassium phosphite [2 (potassium phosphite)],4.81,–,4,–
urea phosphite [Example 2],–,–,–,stable upon heating to 90 °C or cooling to 0 °C
